In patent US20090124680A1, “USE OF PRODRUG COMPOSITION CONTAINING NAPHTHOQUINONE-BASED COMPOUND FOR MANUFACTURE OF MEDICAMENT FOR TREATMENT OR PREVENTION OF DISEASES INVOLVING METABOLIC SYNDROME” (Mazence Inc., priority 2007, published 2009):

Columns and labels:
[1] = Biochemical indices in the blood of C57BL/6 mice after administration; assay type: in vivo; details: oral, 28 days; Example 14 195 mg/kg, Example 5 65 mg/kg; compared to control group; FIG. 4
Method: (§1) 4-week-old C57BL/6 male mice were purchased from Orient BIO Inc. (Korea). Animals were raised for 10 weeks in a breeding room maintained at a temperature of 23° C., 55% humidity, illumination of 300 to 500 lux, a 12-h light/dark (L/D) cycle, and ventilation of 10 to 18 times/hr. Experiments included animals weighing […] or higher. Animals were fed ad libitum a high-fat diet (45 kcal % from fat, D12451, Research Diet) and tap water as drinking water.
(§2) Each group of animals was administered 195 mg/kg of the prodrug compound of Example 14 (hereinafter often simply referred to as “A31”) and 65 mg/kg of the prodrug compound of Example 5 (hereinafter often simply referred to as “A32”) for 4 weeks, as set forth in Table 1 below. Observations were made on changes in body weight and food intake, with respect to a time course of administration. After administration was complete, biochemical indices were assayed including changes in adipose tissue distribution, hepatic functions, and lipid and enzyme levels.
FIGS. 4 and 5 show changes of biochemical indices in the blood of C57BL/6 mice to which the prodrug composition of Example 5 and the prodrug composition of Example 14 were administered.

[2] = Weight loss effects in obese mice: body weight, body weight gain and food intake; assay type: in vivo, C57BL/6 male mice; details: high-fat diet mice; oral, 28 days; Example 14 195 mg/kg, Example 5 65 mg/kg; compared to control group; FIGS. 1 and 2
Method: as §1, §2

Compound	blood levels of GOT/GTP enzymes [1]	body weight (g) [2]	body weight gain (%) [2]
10,11-diacetoxy-2,6,6-trimethyl-1,2,6,7,8,9-hexahydro-phenanthro[1,2b]furan [Example 14]	decreased	significant reductions	significant reductions
CC(=O)Oc1c2c(c3ccccc3c1OC(C)=O)OC(C)(C)CC2 [Example 5, 5,6-diacetoxy-2,2-dimethyl-3,4-dihydro-2H-benzo[h]chromene]	decreased	excellent weight-loss effects	negative (−) value
